{
  "source": "patent US20100146646A1",
  "about": "“METHOD OF MONITORING RETINOPATHY” (priority 2007, published 2010)",
  "key": {"[1]": {"tested_on": "transgenic GFAP-GFP mice (SNpc and striatum)", "assay": "Brain cryosections: tyrosine hydroxylase (TH) immunohistochemistry", "assay_type": "in vivo, mouse", "conditions": "a day after administration, vs saline", "method": "(§1) The test compounds 2′-CH3-MPTP (M103), KA (K0250) and IDPN (317306) were purchased from Sigma-Aldrich (St. Louis, Mo., USA). Each mouse in the treatment group received either 4 intraperitoneal (ip) injections of 2′-CH3-MPTP (15 mg/kg in saline, ip, once every 2 hours), a single injection of KA (25 mg/kg in saline, ip) or 3 injections of IDPN (500 mg/kg, ip, once daily). For each neurotoxicant-treated group (n=3), saline was used as a vehicle for the control group (n=3). Retinal imaging was subsequently performed over a period of 14 days.\n(§2) Retina wholemount and immunohistochemistry (IHC): After perfusing the mice with 1×PBS, followed by 4% fresh paraformaldehyde (in 1×PBS, pH 7.4), the brains were harvested and the eyes enucleated. The eyes were fixed immediately in 4% paraformaldehyde overnight at 4° C., after which they were dissected at the equator with the lens and vitreous removed. The retina was then dissected free from the choroid and sclera and whole mounted on a glass slide. Whole retina was mounted with Vectorshield mounting medium for fluorescence (Vector Laboratories, Inc., Burlingame, Calif., USA; H1000). The brains were first fixed in 4% paraformaldehyde for 4 hr at 4° C. and soaked in 30% sucrose at 4° C. overnight. The processed brain tissues were embedded in OTC freezing medium for sectioning on a cryostat (Leica Microsystems, Nussloch GmbH; CM-3050S). […]"}, "[2]": {"tested_on": "transgenic GFAP-GFP mice (glia of optic disc and central retina)", "assay": "In vivo scanning laser opthalmoscope (SLO) imaging of GFP fluorescence in the optic disc after neurotoxicant injection", "set-up": "species or system mouse", "conditions": "for time point of maximum GFP fluorescence around the fringe of the optic disc: adult GFAP-GFP mice, ip neurotoxicant, SLO imaging over 14 days; for retinal gliosis: neurotoxicant-treated GFAP-GFP mice, summary statement", "excerpt": "Transgenic GFAP-GFP mice: The generation and genotyping of the transgenic GFAP-GFP mice were done as previously described (Zhuo et al., 1997). Adult mice (8-10 weeks old) in the FVB/N background were used in the present study. Animal husbandry was provided by National University of Singapore animal holding unit. The experimental protocol covering the current study was approved by the Institutional Animal Care and Use Committee.\nas §1\nPreparation of Animals: Mice were Anaesthetized by Ip Injections with 0.15 ml/10 g body weight of Avertin (1.5% 2,2,2-tribromoethanol; T48402) purchased from Sigma-Aldrich (St. Louis, Mo., USA), and their pupils dilated with a drop of 0.5% Cyclogyl® sterile ophthalmic solution (cyclopentolate hydrochloride, Alcon®, Puurs, Belgium). Custom-made PMMA hard contact lenses (from Cantor & Nissel (Northamptonshire, UK) were used to correct optical aberration and to avoid dehydration of the mouse eyes. Careful examination by an eye specialist before scanning laser opthalmoscope imaging ruled out the presence of any corneal or lens opacities.\nScanning laser opthalmoscope (SLO) imaging: For the work described here, the second version of Heidelberg Retina Angiograph (HRA II) scanning laser opthalmoscope (Heidelberg Engineering, Dossenheim, Germany) modified for use on mice was employed. The scanning laser opthalmoscope (SLO) is a fundus imaging technique based on the scanning of the fundus with a laser beam from a point source, while the reflected light is detected by a photomultiplier. Incident and reflected light follow a co-axial path. Therefore, more light can pass through small eyes than with conventional fundus cameras. Several reports of SLO imaging in rats (Hossain et al., 1998; Khoobehi and Peyman, 1999; Cordeiro et al., 2004; Genevois et al., 2004) and mice (Jaissle et al., 2001; Xu et al., 2003) have been published, with the latest study by (Seeliger et al., 2005) and (Paques et al., 2006) in evaluating mouse fundus with the first version of the HRA (or HRA I). The HRA II features the two Argon lasers in the short wavelength range (488 nm and 514 nm) and two infrared diode lasers in the long wavelength range (795 nm and 830 nm). The 488 and 795 nm lasers are used for fluorescein and indocyanine green angiography respectively. Appropriate barrier filters of 500 nm and 800 nm, respectively, remove the reflected light with unchanged wavelength and allow only the light emitted by the dye upon stimulation to pass through. The finest definition is 768×768 pixels at an optical resolution of 10 μm/pixel and coupled with three fields of view (nominal values of 15°, 20° and 30°). The focus is adjustable over a +12/−12 diopters range using step increments of 0.25 diopters. A video acquisition mode (48 ms to 96 ms per image) is available. Within any area of interest, a stack of tomographic images (z-scans) up to a maximum depth of 8 mm can be automatically acquired."}, "[3]": {"tested_on": "transgenic GFAP-GFP mice (hippocampus, substantia nigra, striatum, olfactory bulb)", "assay": "Brain cryosections: transgenic GFP and GFAP immunohistochemistry (gliosis)", "assay_type": "in vivo, mouse", "method": "as §1\nRetina wholemount and immunohistochemistry (IHC): After perfusing the mice with 1×PBS, followed by 4% fresh paraformaldehyde (in 1×PBS, pH 7.4), the brains were harvested and the eyes enucleated. The eyes were fixed immediately in 4% paraformaldehyde overnight at 4° C., after which they were dissected at the equator with the lens and vitreous removed. The retina was then dissected free from the choroid and sclera and whole mounted on a glass slide. Whole retina was mounted with Vectorshield mounting medium for fluorescence (Vector Laboratories, Inc., Burlingame, Calif., USA; H1000). The brains were first fixed in 4% paraformaldehyde for 4 hr at 4° C. and soaked in 30% sucrose at 4° C. overnight. The processed brain tissues were embedded in OTC freezing medium for sectioning on a cryostat (Leica Microsystems, Nussloch GmbH; CM-3050S). Coronal cryosections (10 μm) of the hippocampus (bregma −1.94 mm, interaural 1.86 mm), SNpc (bregma −3.16 mm, interaural 0.64 mm) and olfactory bulb (bregma 4.28 mm, interaural 8.08 mm) according to the Atlas of Mouse Brain (Franklin and Paxinos, 2001), together with the retina wholemounts were used for IHC using rabbit polyclonal antibodies (in 1:200 dilution) against GFAP (Dako, Z0334). Sections of the SNpc and striatum (bregma 0.62 mm, interaural 4.42 mm) were used for IHC using rabbit polyclonal antibodies (in 1:200 dilution) against tyrosine hydroxylase (TH; Chemicon, Calif., USA; Ab-152). The bound primary antibodies on the tissue sections were stained with a goat IgG conjugated to Texas-red (Abeam, Ab7088) at 1:100 dilution for 2 hr at room temperature, and visualized using confocal microscopy (LSM 510 META, Carl Zeiss Microimaging GmbH, Jena Germany)."}, "[4]": {"tested_on": "transgenic GFAP-GFP mice (whole-mount retina)", "assay": "Retina whole-mount: transgenic GFP and GFAP immunohistochemistry", "assay_type": "in vivo, mouse", "conditions": "7 days after a single ip injection (25 mg/kg), vs saline", "method": "as §1, §2"}, "retinal Müller cells": {"tested_on": "retinal Müller cells", "conditions": "injected into the vitreous of the eye; cited from earlier work"}, "[5]": {"tested_on": "neuronal and glial cells in the retina", "conditions": "cited from earlier work"}, "[6]": {"conditions": "a day after administration, vs saline"}, "[7]": {"conditions": "7 days after administration, vs saline"}},
  "note": "Entries after “also recorded” stand apart in the source; their conditions may differ.",
  "data": [
    {"smiles": "Cc1ccccc1C1=CCN(C)CC1", "note": "[2′-CH3-MPTP, 1-methyl-4(2′-methylphenyl)-1,2,3,6-tetrahydropyridine]", "values": [
      {"measurement": "TH-immunoreactive midbrain dopaminergic neurons in the SNpc", "setting": "[1]", "value": "observable tyrosine hydroxylase (TH) depletion; also recorded: marked depletion"},
      {"measurement": "level of TH expression in the striatum", "setting": "[1]", "value": "no change in TH expression could be visually observed; also recorded: no detectable changes"},
      {"measurement": "time point of maximum GFP fluorescence around the fringe of the optic disc", "setting": "[2]", "value": 1, "unit": "days"},
      {"measurement": "time of maximal increase in GFP expression in the optic disc", "setting": "[2]; after administration of the neurotoxicant (4 x 15 mg/kg ip)", "value": 24, "unit": "h"},
      {"measurement": "retinal gliosis", "setting": "[2]", "value": "elicits retinal gliosis"},
      {"measurement": "GFP / gliosis in striatal astrocytes", "setting": "[3]; [6]", "value": "acute gliosis; also recorded: substantial GFP increase"},
      {"measurement": "gliosis in the substantia nigra", "setting": "[3]; [6]", "value": "gliosis occurs extensively"},
      {"measurement": "GFP and GFAP expression in activated astrocytes of the brain", "setting": "[3]; a day after systemic administration", "value": "an increase in GFP and to a lesser extent, GFAP expression"}
    ]},
    {"smiles": "N#CCCNCCC#N", "note": "[IDPN, 3,3-iminodipropionitrile]", "values": [
      {"measurement": "time point of maximum GFP fluorescence around the fringe of the optic disc", "setting": "[2]", "value": 7, "unit": "days"},
      {"measurement": "retinal gliosis", "setting": "[2]", "value": "elicits retinal gliosis"},
      {"measurement": "gliosis / GFP-positive astrocytes co-localizing with GFAP-immunoreactive cells in the glomerular layer (GL) of the olfactory bulb", "setting": "[3]; 7 days after administration (3 x 500 mg/kg ip), vs saline", "value": "acute gliosis; also recorded: markedly more GFP-positive astrocytes"},
      {"measurement": "GFAP-positive cells in the granular cell layer (GCL) of the olfactory bulb", "setting": "[3]; [7]", "value": "strong increase of GFAP-positive cells"}
    ]},
    {"smiles": "C=C(C)[C@H]1CN[C@H](C(=O)O)[C@H]1CC(=O)O", "note": "[KA, kainic acid]", "values": [
      {"measurement": "gliosis in the nerve fiber layer (NFL) of whole-mount retina (transgenic GFP and endogenous GFAP)", "setting": "[4]", "value": "severe gliosis"},
      {"measurement": "GFAP in the retinal Müller cells", "setting": "retinal Müller cells", "value": "up-regulation of GFAP"},
      {"measurement": "time point of maximum GFP fluorescence around the fringe of the optic disc", "setting": "[2]", "value": 7, "unit": "days"},
      {"measurement": "retinal gliosis", "setting": "[2]", "value": "elicits retinal gliosis"},
      {"measurement": "level of GFP and GFAP expression in the entire hippocampus area (CA1, CA3, dentate gyrus)", "setting": "[3]; 7 days after administration, compared to saline control", "value": "extremely high level of GFP and GFAP expression"},
      {"measurement": "gliosis in astrocytes of the hippocampus (GFP and GFAP)", "setting": "[3]; [7]", "value": "severe reactive gliosis"}
    ]},
    {"smiles": "CN1CC=C(c2ccccc2)CC1", "note": "[MPTP, 1-methyl-4-phenyl-1,2,3,6-tetrahydropyrine]", "values": [
      {"measurement": "GFAP immunoreactivity of the glial cells of the retina", "setting": "[5]; several days after injection", "value": "increased"},
      {"measurement": "microglia in the inner outer retina", "setting": "[5]; within a week after systemic injection in mice", "value": "microglia activation was observed"}
    ]}
  ]
}
